Assay [1] concerns FADD-deficient Jurkat cells. The experiment in a line: TNF-induced programmed necrosis of FADD-deficient Jurkat cells (Cell Titer-Glo viability). Conditions: Homo sapiens, Jurkat. Type of assay: cell-based, human. Here is the method:
(§1) The biological test protocol is adopted to test effects of the compound on TNF-induced programmed necrosis of FADD (Fas-associated death domain)-deficient Jurkat cells and L929 cells.
(§2) Two different stimulation methods were used: treating with tumor necrosis factor (TNFα) alone, or treating with TNFα in combination of mitochondrial-derived cysteine-aspartate activator (SMAC) SM164. Cell viability was determined by measuring chemiluminescence values, thereby assessing the bioactivity of the compounds in inhibiting programmed cell necrosis.
(§3) Method: FADD-deficient Jurkat cells: FADD-deficient Jurkat cells (human peripheral blood leukemia T cell line) were cultured in vitro. After reaching logarithmic growth phase, cells were collected and centrifuged at 1000 rpm for 5 minutes. A supernatant was discarded. A cell concentration was adjusted to 2.5×10^5/mL, and cells were seeded into a 384-well plate at 40 µL per well. In the corresponding wells, 5 µL of SM164 (50 nM) and compounds diluted with cell culture medium were added. After pre-treatment at 37°C for 1 hour, 5 µL of TNFα (50 ng/mL) diluted with cell culture medium was added to each well as a stimulation group, while 5 µL of culture medium was added as a control group. After the plate was incubated in a cell culture incubator (37°C, 5% CO2) for 14 hours, 15 µL of Cell Titer-Glo solution was added to each well. Then, the plate was incubated at room temperature for 30 minutes. Luminescence was measured to assess intracellular ATP levels. Cell viability was set at 100% for unstimulated DMSO control wells. […] The plate was placed in a cell culture incubator (37°C, 5% CO2) and cultured for 12 hours. In the corresponding wells, 5 µL of SM164 (500 nM) and compounds diluted with cell culture medium were added. After pre-treatment at 37°C for 1 hour, 5 µL of TNFα (500 ng/mL) diluted with cell culture medium was added to the wells as a stimulation group, while 5 µL of culture medium was added as a control group. After the plate was incubated in the cell incubator (37°C, 5% CO2) for 14 hours, 15 µL of Cell Titer-Glo solution was added to each well. Then, the plate was incubated at room temperature for 30 minutes, and luminescence was measured to assess intracellular ATP levels. Cell viability was set at 100% for unstimulated DMSO control wells. EC50 values of the compounds were calculated using Prism GraphPad statistical software.
Background: ATP-based viability assays read luminescence as a measure of living cells.

In another assay the test system is L929 cells. The experiment in a line: TNF-induced programmed necrosis of L929 cells (Cell Titer-Glo viability). Type of assay: cell-based, mouse. The conditions noted are these: Mus musculus. Here is the method: as §1, §2, §3
[2] abbreviates: stimulation with TNFα + SM164, read-out: EC50 (nM) FADD^-/- Jurkat cells (human-derived) TNFα+ SM164.
The mark [3] stands for this setting: stimulation with TNFα alone, read-out: EC50 (nM) FADD^-/- Jurkat cells (human-derived) TNFα.
Where [4] appears, read: L929, stimulation with TNFα + SM164, read-out: EC50 (nM) L929 cells (mouse-derived) TNFα+ SM164.
The mark [5] stands for this setting: L929, stimulation with TNFα alone, read-out: EC50 (nM) L929 cells (mouse-derived) TNFα.
Where [6] appears, read: read-out: EC50 (nM) FADD^-/- Jurkat cells (human-derived) TNFα.
Where [7] appears, read: L929, read-out: EC50 (nM) L929 cells (mouse-derived) TNFα.

Drawing on patent EP4741379A1, “CLASS OF PROGRAMMED CELL DEATH INHIBITORS, PREPARATION METHOD THEREFOR AND USE THEREOF” (SHANGHAI INSTITUTE OF ORGANIC CHEMISTRY, CHINESE ACADEMY OF …, priority 2023, dated 2025), this text covers EC50 for 36 molecules.

Like-named read-outs stand apart in the source and are kept apart here.

Turning to `C[C@H](NC(=O)c1nnn(C)c1Cc1ccccc1)c1ccc(C#Cc2cnc(N(C)C)nc2)cc1` [IRCBC-119], the EC50 is 5.79 nM in assay [1] (setting [2]), 0.164 nM in assay [1] (setting [3]), 70.9 nM in the assay with L929 cells (setting [4]) and 20.9 nM with L929 cells (setting [5]).

Turning to `C[C@H](NC(=O)c1cnn(C)c1Cc1ccccc1)c1ccc(C#Cc2ccccn2)cc1` [QY-20-2], the EC50 in assay [1] (setting [2]) amounted to 0.3 nM; in assay [1] (setting [3]) it was 0.03 nM; in the assay with L929 cells (setting [4]) it was 0.5 nM; in the assay with L929 cells (setting [5]), 0.1 nM.

Regarding `C[C@H](NC(=O)c1nnn(C)c1Cc1ccccc1)c1ccc(C#Cc2ncccc2F)cc1` [IRCBC-122], the EC50 in assay [1] (setting [2]) worked out at 0.035 nM; in the assay with L929 cells (setting [4]), 0.032 nM; with L929 cells (setting [5]) it was 0.026 nM.

Regarding `C[C@H](NC(=O)c1nnn(C)c1Cc1ccccc1)c1ccc(C#Cc2c(F)cncc2F)cc1` [IRCBC-091], the EC50 in assay [1] (setting [2]) is 0.145 nM; in assay [1] (setting [3]), 0.004 nM; with L929 cells (setting [4]) it was 1.29 nM; in the assay on L929 cells (setting [5]) it was 0.455 nM.

Take `C[C@H](NC(=O)c1nnn(C)c1Cc1ccccc1)c1ccc(C#Cc2cnccn2)cc1` [IRCBC-048]: the EC50 in assay [1] (setting [6]) was 0.018 nM; in the assay with L929 cells (setting [7]), 2.93 nM.

As for `C[C@H](NC(=O)c1nnn(C)c1Cc1ccccc1)c1ccc(C#Cc2ncc(N3CC(N(C)C)C3)cn2)cc1` [IRCBC-259], the EC50 in the assay on L929 cells (setting [4]) is 0.001 nM.

Take `COc1ccc(C#Cc2ccc([C@H](C)NC(=O)c3nnn(C)c3Cc3ccccc3)cc2)nc1` [IRCBC-052]: the EC50 in assay [1] (setting [6]) stood at 0.001 nM; in the assay with L929 cells (setting [7]), 0.068 nM.

For the molecule `CC(=O)Nc1ccc(C#Cc2ccc([C@H](C)NC(=O)c3nnn(C)c3Cc3ccccc3)cc2)nc1` [IRCBC-149], the EC50 in assay [1] (setting [2]) was 0.003 nM; in the assay with L929 cells (setting [4]), 0.066 nM; with L929 cells (setting [5]) it was 0.045 nM.

Regarding `CNc1cnc(C#Cc2ccc([C@H](C)NC(=O)c3nnn(C)c3Cc3ccccc3)cc2)cn1` [IRCBC-145], the figures for the EC50 (in assay [1] (setting [2]); in the assay on L929 cells (setting [4]); in the assay on L929 cells (setting [5])) were 0.007 nM, 0.127 nM and 0.063 nM, respectively.

Take `C[C@H](NC(=O)c1nnn(C)c1Cc1ccccc1)c1ccc(C#Cc2ccc(Cl)cn2)cc1` [IRCBC-050]: the EC50 in assay [1] (setting [6]) turned out to be 0.001 nM; with L929 cells (setting [7]) it was 0.105 nM.

`C[C@H](NC(=O)c1nnn(C)c1Cc1ccccc1)c1ccc(C#Cc2nccn2C)cc1` [IRCBC-002]: the EC50 in assay [1] (setting [6]) was 0.392 nM; with L929 cells (setting [7]), 55.7 nM.

With `CN1C(=O)N[C@H](Cc2c[nH]c3c(Cl)cccc23)C1=O` [Nec-1s, reference compound], the EC50 in assay [1] (setting [6]) is 228 nM; with L929 cells (setting [7]), 443 nM.

For `C[C@H](NC(=O)c1nnn(C)c1Cc1ccccc1)c1ccc(C#Cc2ccc(N(C)C)cn2)cc1` [IRCBC-053], the EC50 in assay [1] (setting [2]) was 0.001 nM; with L929 cells (setting [4]), 0.011 nM; with L929 cells (setting [5]), 0.004 nM.

Regarding `C[C@H](NC(=O)c1nnn(C)c1Cc1ccccc1)c1ccc(C#Cc2ncco2)cc1` [IRCBC-008], the EC50 in assay [1] (setting [6]) is 0.055 nM; in the assay on L929 cells (setting [7]), 1.86 nM.

As to `[2H]C([2H])([2H])Nc1cnc(C#Cc2ccc([C@H](C)NC(=O)c3nnn(C)c3Cc3ccccc3)cc2)c(C#N)c1` [IRCBC-257], the EC50 in the assay with L929 cells (setting [4]) was 0.00117 nM.

For `CC(C)N1CCN(c2ccc(C#Cc3ccc([C@H](C)NC(=O)c4nnn(C)c4Cc4ccccc4)cc3)nc2)CC1` [IRCBC-159], the EC50 was 0.002 nM in assay [1] (setting [2]), 0.006 nM in the assay on L929 cells (setting [4]) and 0.003 nM in the assay with L929 cells (setting [5]).

In the case of `CC(C)Nc1cnc(C#Cc2ccc([C@H](C)NC(=O)c3nnn(C)c3Cc3ccccc3)cc2)nc1` [IRCBC-269], the EC50 in assay [1] (setting [2]) was determined as 0.00168 nM.

For `C[C@H](NC(=O)c1nnn(C)c1Cc1ccccc1)c1ccc(C#Cc2ncc(N3CCOCC3)cc2C#N)cc1` [IRCBC-154], the EC50 in the assay on L929 cells (setting [4]) came out at 0.002 nM.

`Cn1nnc(C(=O)NCc2ccc(C#Cc3ccccn3)nc2)c1Cc1ccccc1` [IRCBC-057]: the EC50 in assay [1] (setting [2]) turned out to be 3.9 nM; in assay [1] (setting [3]), 0.537 nM; in the assay on L929 cells (setting [4]), 35.5 nM; in the assay with L929 cells (setting [5]) it was 12.6 nM.

For `C[C@H](NC(=O)c1nnn(C)c1Cc1ccccc1)c1ccc(C#Cc2ncccc2N(C)C)cc1` [IRCBC-124], the EC50 in assay [1] (setting [2]) turned out to be 0.034 nM; in the assay on L929 cells (setting [4]), 5.87 nM; in the assay on L929 cells (setting [5]), 1.93 nM.

With `[2H]C([2H])([2H])Nc1ccc(C#Cc2ccc([C@H](C)NC(=O)c3nnn(C)c3Cc3ccccc3)cc2)nc1` [IRCBC-150], the EC50 in the assay with L929 cells (setting [4]) and in the assay with L929 cells (setting [5]) was 0.001 nM throughout.

For `C[C@H](NC(=O)c1nnn(C)c1Cc1ccccc1)c1ccc(C#Cc2ccnn2C)cc1` [IRCBC-003], the EC50 in assay [1] (setting [6]) came to 0.095 nM; in the assay with L929 cells (setting [7]), 1.11 nM.

As for `CNc1cnc(C#Cc2ccc([C@H](C)NC(=O)c3nnn(C)c3Cc3ccccc3)cc2)nc1` [IRCBC-160], in the assay with L929 cells (setting [4]), the EC50 was 0.00234 nM.

`C[C@H](NC(=O)c1nnn(C)c1Cc1ccccc1)c1ccc(C#CC2CCOC2)cc1` (stereo partly shown) [IRCBC-010]: the EC50 came to 13.4 nM in assay [1] (setting [2]), 0.481 nM in assay [1] (setting [3]), 6.71 nM in the assay with L929 cells (setting [4]) and 3.27 nM with L929 cells (setting [5]).

For the molecule `COc1cccnc1C#Cc1ccc([C@H](C)NC(=O)c2nnn(C)c2Cc2ccccc2)cc1` [IRCBC-123], the results for the EC50 (in assay [1] (setting [2]); in the assay with L929 cells (setting [4]); with L929 cells (setting [5])) were 0.004 nM, 1.05 nM and 0.246 nM, respectively.

With `C[C@H](NC(=O)c1nnn(C)c1Cc1ccccc1)c1ccc(N2CCN(C)C(=O)C2)cc1` [IRCBC-043], the EC50 in assay [1] (setting [2]) is 5.11 nM; in assay [1] (setting [3]), 0.683 nM; in the assay on L929 cells (L929, stimulation with TNFα + SM164, µM, read-out: EC50 L929 cells (mouse-derived) TNFα+ SM164), greater than 1000 nM; in the assay with L929 cells (L929, stimulation with TNFα alone, µM, read-out: EC50 L929 cells (mouse-derived) TNFα), greater than 1000 nM.

For the molecule `Cn1nnc(C(=O)NCc2ccc(C#Cc3ccccn3)cc2F)c1Cc1ccccc1` [IRCBC-059], the EC50 in assay [1] (setting [2]) stood at 2.26 nM; in assay [1] (setting [3]) it was 0.025 nM; in the assay on L929 cells (setting [4]), 14.8 nM; in the assay on L929 cells (setting [5]) it was 3.07 nM.

With `C[C@H](NC(=O)c1nnn(C)c1Cc1ccccc1)c1ccc(C#Cc2ccn(C)n2)cc1` [IRCBC-004], the values for the EC50 (in assay [1] (setting [6]); with L929 cells (setting [7])) were 0.019 nM and 0.558 nM, respectively.

Consider `C[C@H](NC(=O)c1nnn(C)c1Cc1ccccc1)c1ccc(C#Cc2ncccn2)cc1` [IRCBC-046], for which the EC50 in assay [1] (setting [2]) amounted to 0.087 nM; in assay [1] (setting [3]), 0.001 nM; in the assay with L929 cells (setting [4]) it was 0.43 nM; in the assay on L929 cells (setting [5]) it was 0.203 nM.

Take `C[C@H](NC(=O)c1nnn(C)c1Cc1ccccc1)c1ccc(C#Cc2ncc(N)cn2)cc1` [IRCBC-161]: the EC50 in the assay with L929 cells (setting [4]) and in the assay on L929 cells (setting [5]) was 0.002 nM each time.

As for `[2H]C([2H])([2H])Nc1cnc(C#Cc2ccc([C@H](C)NC(=O)c3nnn(C)c3Cc3ccccc3)cc2)nc1` [IRCBC-256], in the assay on L929 cells (setting [4]), the EC50 is 0.00121 nM.

`C[C@H](NC(=O)c1nnn(C)c1Cc1ccccc1)c1ccc(C#Cc2ccc(N3CCOCC3)cn2)cc1` [IRCBC-105]: the EC50 was determined as 0.004 nM with L929 cells (setting [4]) and 0.008 nM in the assay with L929 cells (setting [5]).

With `CNc1ccc(C#Cc2ccc([C@H](C)NC(=O)c3nnn(C)c3Cc3ccccc3)cc2)nc1` [IRCBC-102], the EC50 with L929 cells (setting [4]) stood at 0.018 nM; in the assay on L929 cells (setting [5]), 0.01 nM.

Turning to `C[C@H](NC(=O)c1nnn(C)c1Cc1ccccc1)c1ccc(C#Cc2ncc(N(C)C)cn2)cc1` [IRCBC-097], the values for the EC50 in the assay on L929 cells (setting [4]) and in the assay with L929 cells (setting [5]) were 0.003 nM and 0.001 nM, respectively.

Regarding `CC(C)Nc1ccc(C#Cc2ccc([C@H](C)NC(=O)c3nnn(C)c3Cc3ccccc3)cc2)nc1` [IRCBC-146], in the assay with L929 cells (setting [4]), the EC50 is 0.0014 nM.

On to `C[C@H](NC(=O)c1nnn(C)c1Cc1ccccc1)c1ccc(C#Cc2ncc3nc[nH]c3n2)cc1` [IRCBC-129], for which the EC50 in the assay on L929 cells (setting [4]) was 0.196 nM; in the assay with L929 cells (setting [5]), 0.06 nM.
